A word on the IC50: it is the concentration that inhibits the measured activity by half.

Structures are written as SMILES. Like-named read-outs stand apart in the source and are kept apart here.

Here are results for 20 molecules from US20250145589A1, “PYRIDINE DERIVATIVE AND USE THEREOF” (SICHUAN HUIYU PHARMACEUTICAL CO., LTD., priority 2021, published 2025).

Assay [1] concerns NCI-H358 cells (KRAS G12C mutant). In words: NCI-H358 cell proliferation inhibition (CellTiter-Glo). It is filed as cell-based. The conditions noted are these: Homo sapiens, NCI-H358, 72 h; H358 cells (G12C mutation), 3 days, Table 6; read-out: NCI-H358 (IC50).
Another assay addresses PI3Kα (Homo sapiens (Human), UniProt P42336). In words: Inhibition of PI3Kα efficacy assay (ADP-Glo kinase assay). It is filed as biochemical. The note with it: read-out: PI3Kα inhibitory activity (IC50). In short, it runs like this:
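ADP-Glo luminescent detection of ADP from PI3Kα acting on PI substrate with ATP, 60 min at RT; compounds in 8-point five-fold serial dilution from 2 mM DMSO stock. IC50 from four-parameter variable-slope fit.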
(In ADP-Glo the light output rises with the ADP produced.)

The target in a further assay is PI3Kδ (Homo sapiens (Human), UniProt O00329). In words: Inhibition of PI3Kδ efficacy assay (ADP-Glo kinase assay). The conditions noted are these: read-out: PI3Kδ inhibitory activity (IC50). It is filed as biochemical. The protocol: Test Example 2: Inhibition of PI3Kδ Efficacy assay The ADP-Glo™ kinase assay was used to assess the inhibition of PI3Kδ with our compounds. The utilized proteins and assay reagents were obtained from the ADP-Glo™ Kinase Assay Kit (Promega). Initially, a 2 mM stock solution of the test compound (dissolved in DMSO) was serially diluted in five-fold concentrations using DMSO to obtain eight working solutions 1 (200×) Subsequently, each of the eight working solutions 1 was further diluted in a 20-fold gradient by adding 5 μL into 95 μL of ddH2O, resulting in eight working solutions 2 (10×). […] Subsequently, 2 μL of 2.5×PI and ATP solution mixture were added to each well, mixed, and incubated at RT for 60 minutes. Then, 5 μL of ADP-Glo (containing 10 mM MgCl2) reagent was added to each well, mixed, and incubated at RT for 40 minutes. Finally, 10 μL of the Kinase Detection Reagent was added to each well, mixed, and incubated at RT for 40 minutes. Luminescence values were recorded using a multi-mode microplate reader with luminescence channel settings, and the inhibitory rate was calculated using the following formula: [formula] Data were analyzed using GraphPad Prism with log(inhibitor) vs. response—Variable Slope(four parameters) fitting calculations for IC50 values.
Sequence of PI3Kδ (O00329 whole entry): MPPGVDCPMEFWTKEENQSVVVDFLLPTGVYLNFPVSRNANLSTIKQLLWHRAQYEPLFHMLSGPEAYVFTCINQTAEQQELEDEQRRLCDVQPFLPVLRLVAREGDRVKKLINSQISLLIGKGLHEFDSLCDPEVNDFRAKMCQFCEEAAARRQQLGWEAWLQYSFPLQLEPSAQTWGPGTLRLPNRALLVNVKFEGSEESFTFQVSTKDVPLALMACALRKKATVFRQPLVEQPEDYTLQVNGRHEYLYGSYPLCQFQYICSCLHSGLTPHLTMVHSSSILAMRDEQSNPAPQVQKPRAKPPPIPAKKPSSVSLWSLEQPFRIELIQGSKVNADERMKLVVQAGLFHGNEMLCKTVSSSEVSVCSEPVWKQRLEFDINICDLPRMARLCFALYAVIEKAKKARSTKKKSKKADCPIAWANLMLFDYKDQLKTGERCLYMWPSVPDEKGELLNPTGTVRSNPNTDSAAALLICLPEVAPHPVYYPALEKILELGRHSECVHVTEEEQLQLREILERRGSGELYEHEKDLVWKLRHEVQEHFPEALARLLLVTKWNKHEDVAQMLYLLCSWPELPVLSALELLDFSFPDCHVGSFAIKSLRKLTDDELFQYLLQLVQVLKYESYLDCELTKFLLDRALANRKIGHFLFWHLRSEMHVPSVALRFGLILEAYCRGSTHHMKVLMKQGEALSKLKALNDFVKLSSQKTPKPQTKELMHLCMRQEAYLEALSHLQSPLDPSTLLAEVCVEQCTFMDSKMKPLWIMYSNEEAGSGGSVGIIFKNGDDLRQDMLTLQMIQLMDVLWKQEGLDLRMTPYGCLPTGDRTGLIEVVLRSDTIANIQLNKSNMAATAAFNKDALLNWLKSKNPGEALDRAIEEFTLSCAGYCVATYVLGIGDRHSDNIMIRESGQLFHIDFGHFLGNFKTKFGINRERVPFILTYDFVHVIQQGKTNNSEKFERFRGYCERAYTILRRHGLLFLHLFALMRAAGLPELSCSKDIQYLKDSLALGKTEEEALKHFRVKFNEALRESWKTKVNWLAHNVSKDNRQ
Sequence of PI3Kδ (P27986 whole entry partner): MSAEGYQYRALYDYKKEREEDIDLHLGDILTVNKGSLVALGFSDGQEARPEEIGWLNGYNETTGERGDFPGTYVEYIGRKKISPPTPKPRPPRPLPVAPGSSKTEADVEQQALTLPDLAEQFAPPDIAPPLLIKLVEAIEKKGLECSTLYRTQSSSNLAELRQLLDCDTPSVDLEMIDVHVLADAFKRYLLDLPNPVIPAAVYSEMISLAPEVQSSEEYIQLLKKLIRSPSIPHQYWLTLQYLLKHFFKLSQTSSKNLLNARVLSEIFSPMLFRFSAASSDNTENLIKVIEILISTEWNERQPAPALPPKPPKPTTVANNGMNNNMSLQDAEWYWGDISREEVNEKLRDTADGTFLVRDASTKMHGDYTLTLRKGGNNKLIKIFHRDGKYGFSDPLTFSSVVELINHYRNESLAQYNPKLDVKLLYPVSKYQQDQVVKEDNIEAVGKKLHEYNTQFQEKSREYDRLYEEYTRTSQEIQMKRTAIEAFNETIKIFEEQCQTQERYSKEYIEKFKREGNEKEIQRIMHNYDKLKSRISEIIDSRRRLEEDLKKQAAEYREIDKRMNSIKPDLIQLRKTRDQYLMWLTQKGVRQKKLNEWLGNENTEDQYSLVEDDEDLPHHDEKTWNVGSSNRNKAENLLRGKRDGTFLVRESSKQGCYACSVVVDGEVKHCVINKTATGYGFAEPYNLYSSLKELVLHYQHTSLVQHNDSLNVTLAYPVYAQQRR

Sequence of PI3Kα (P42336 whole entry): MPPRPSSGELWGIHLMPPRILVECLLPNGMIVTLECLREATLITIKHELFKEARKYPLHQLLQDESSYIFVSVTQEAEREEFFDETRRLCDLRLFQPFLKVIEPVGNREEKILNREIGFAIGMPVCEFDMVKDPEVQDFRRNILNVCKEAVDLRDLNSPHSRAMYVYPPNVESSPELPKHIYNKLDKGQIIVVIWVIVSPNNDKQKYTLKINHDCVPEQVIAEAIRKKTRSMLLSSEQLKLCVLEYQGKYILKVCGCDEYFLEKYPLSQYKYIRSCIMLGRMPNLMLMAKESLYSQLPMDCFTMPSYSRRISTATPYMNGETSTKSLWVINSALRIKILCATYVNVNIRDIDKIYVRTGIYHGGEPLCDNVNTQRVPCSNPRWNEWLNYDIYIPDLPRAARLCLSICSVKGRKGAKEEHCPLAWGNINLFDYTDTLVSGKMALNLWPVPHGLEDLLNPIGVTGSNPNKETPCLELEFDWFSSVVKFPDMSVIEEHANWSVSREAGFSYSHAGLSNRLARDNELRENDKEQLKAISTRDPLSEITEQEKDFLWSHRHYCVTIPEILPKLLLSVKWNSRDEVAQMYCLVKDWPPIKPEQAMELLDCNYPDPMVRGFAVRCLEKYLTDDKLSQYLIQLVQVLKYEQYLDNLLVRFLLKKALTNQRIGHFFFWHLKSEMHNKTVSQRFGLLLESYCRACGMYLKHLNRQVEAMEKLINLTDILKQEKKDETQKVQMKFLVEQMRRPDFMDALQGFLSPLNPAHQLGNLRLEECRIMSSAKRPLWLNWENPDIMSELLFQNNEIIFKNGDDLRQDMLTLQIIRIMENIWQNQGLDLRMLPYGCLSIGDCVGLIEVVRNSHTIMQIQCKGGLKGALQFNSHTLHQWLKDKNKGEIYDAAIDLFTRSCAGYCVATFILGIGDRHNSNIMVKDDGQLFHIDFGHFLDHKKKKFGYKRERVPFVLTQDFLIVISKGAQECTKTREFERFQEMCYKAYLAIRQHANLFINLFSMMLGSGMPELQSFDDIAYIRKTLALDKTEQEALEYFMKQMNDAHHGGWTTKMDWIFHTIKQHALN
Sequence of PI3Kα (P27986 whole entry partner): as the sequence (P27986 whole entry partner) above

On to `C=C(F)C(=O)N1CCN(c2ncnc3ccc(-c4cnc(OC)c(NS(=O)(=O)c5ccc(F)cc5F)c4)cc23)[C@@H](C)C1` [Example 9, (S)-2,4-difluoro-N-(5-(4-(4-(2-fluoroacryloyl)-2-methylpiperazin-1-yl)quinazolin-6-yl)-2-methoxypyridin-3-yl)benzenesulfonamide], for which the IC50 in assay [1] worked out at 350 nM; at PI3Kα (Table 1), 0.56 nM; at PI3Kδ (Table 1), 9.05 nM.
On the same counts, the results for `C=CC(=O)N1CCN(c2ncnc3ccc(-c4cnc(OC)c(NS(=O)(=O)c5ccccc5)c4)cc23)CC1` [Example 24, N-(5 (4-(4-acryloylpiperazin-1-yl)quinazolin-6-yl)-2-methoxypyridin-3-yl)benzenesulfonamide] are 123 nM, 2.9 nM and 6.3 nM.
Turning to `COc1ncc(-c2ccc3ncnc(N4CCN(C(=O)C5=CC(=O)CCC5)CC4)c3c2)cc1NS(=O)(=O)c1ccc(Cl)s1` [Example 73, 5-chloro-N-(2-methoxy-5-(4-(4-(3-oxocyclohexane-1-en-1-carbonyl)piperazin-1-yl)quinazoline-6-yl)pyridin-3-yl)thiophene-2-sulfonamide], the IC50 was determined as 34.3 nM in assay [1], 2.5 nM on PI3Kα (Table 2) and 16.5 nM at PI3Kδ (Table 2).
Consider `C=C(OC)C(=O)N1CCN(c2ncnc3ccc(-c4cnc(OC)c(NS(=O)(=O)c5ccc(F)cc5F)c4)cc23)CC1` [Example 66, 2,4-difluoro-N-(2-methoxy-5-(4-(4-(2-methoxy-acryloyl)piperazin-1-yl)quinazolin-6-yl)pyridin-3-yl) benzene-sulfonamide], for which the IC50 worked out at 13.5 nM in assay [1], 13.8 nM at PI3Kα (Table 2) and 14.8 nM on PI3Kδ (Table 2).
Regarding `C=CC(=O)N1CCN(c2ncnc3ccc(-c4cnc(OC)c(NS(=O)(=O)C5CCCCC5)c4)cc23)CC1` [Example 25, N-(5-(4-(4-acryloylpiperazin-1-yl)quinazolin-6-yl)-2-methoxypyridin-3-yl)cyclohexanesulfonamide], the half-maximal inhibitory concentration (IC50) in assay [1] was 288 nM; at PI3Kα (Table 1) it was 26.9 nM; at PI3Kδ (Table 1), 127 nM.
As to `COc1ncc(-c2ccc3ncnc(N4CCN(C(=O)/C=C/c5ncco5)CC4)c3c2)cc1NS(=O)(=O)c1ccc(F)cc1F` [Example 62, (E)-2,4-difluoro-N-(2-methoxy-5-(4-(4-(3-(oxazol-2-yl)acryloyl)piperazin-1-yl)quinazolin-6-yl)pyridin-3-yl) benzene-sulfonamide], the figures for the half-inhibitory concentration (IC50) (in assay [1]; at PI3Kα (Table 2); on PI3Kδ (Table 2)) were 15.1 nM, 11.8 nM and 12.5 nM, respectively.
The corresponding values for `COc1ncc(-c2ccc3ncnc(N4CCN(C(=O)/C=C/C(C)=O)CC4)c3c2)cc1NS(=O)(=O)c1ccc(F)cn1` [Example 118, (E)-5-fluoro-N-(2-methoxy-5-(4-(4-(4-oxopent-2-enoyl)piperazin-1-yl)quinazolin-6-yl)pyridin-3-yl)pyridine-2-sulfonamide] are 79.2 nM, 1.9 nM and 19.7 nM.
With `C=CC(=O)N1C[C@H](C)N(c2ncnc3ccc(-c4cnc(OC)c(NS(=O)(=O)c5ccc(F)cc5F)c4)cc23)C[C@H]1C` [Example 14, N-(5-(4-((2S,5R)-4-acryloyl-2,5-dimethylpiperazin-1-yl)quinazolin-6-yl)-2-methoxypyridin-3-yl)-2,4-difluorobenzenesulfonamide], the IC50 in assay [1] was determined as 233 nM; at PI3Kα (Table 1), 9.5 nM; at PI3Kδ (Table 1), 62.1 nM.
As to `COc1ncc(-c2ccc3ncnc(N4CCN(C(=O)/C=C/S(C)(=O)=O)CC4)c3c2)cc1NS(=O)(=O)c1ccc(F)cc1F` [Example 75, (E)-2,4-difluoro-N-(2-methoxy-5-(4-(4-(3-(methylsulfonyl)acryloyl)piperazin-1-yl)quinazolin-6-yl)pyridin-3-yl)benzenesulfonamide], the results for the IC50 (in assay [1]; at PI3Kα (Table 2); on PI3Kδ (Table 2)) were 285 nM, 0.78 nM and 31.2 nM, respectively.
In the case of `C=CC(=O)N1CC2(CCN(c3ncnc4ccc(-c5cnc(OC)c(NS(=O)(=O)c6ccc(F)cc6F)c5)cc34)C2)C1` [Example 12, N-(5-(4-(2-acryloyl-2,6-diazaspiro[3.4]octan-6-yl)quinazolin-6-yl)-2-methoxypyridin-3-yl)-2,4-difluorobenzenesulfonamide], the IC50 amounted to 50.6 nM in assay [1], 9.3 nM at PI3Kα (Table 1) and 77.4 nM at PI3Kδ (Table 1).
In the case of `COc1ncc(-c2ccc3ncnc(N4CCN(C(=O)C5=CC(=O)CC5)CC4)c3c2)cc1NS(=O)(=O)c1ccc(F)cc1F` [Example 74, 2,4-difluoro-N-(2-methoxy-5-(4-(4-(3-oxocyclopent-1-ene-1-carbonyl)piperazin-1-yl)quinazolin-6-yl)pyridin-3-yl)benzenesulfonamide], the half-maximal inhibitory concentration (IC50) in assay [1] was determined as 26.5 nM; on PI3Kα (Table 2), 1.8 nM; on PI3Kδ (Table 2), 23.2 nM.
As to `C=CC(=O)N1CCN(c2ncnc3c2CN(c2cnc(OC)c(NS(=O)(=O)c4ccc(F)cc4F)c2)CC3)CC1` [Example 41, N-(5-(4-(4-acryloylpiperazin-1-yl)-7,8-dihydropyrido[4,3-d]pyrimidin-6 (5H)-yl)-2-methoxypyridin-3-yl)-2,4-difluorobenzenesulfonamide], the IC50 in assay [1] turned out to be 4290 nM; on PI3Kα (Table 1), 7.6 nM; on PI3Kδ (Table 1), 10.1 nM.
Turning to `COc1ncc(-c2ccc3ncnc(N4CCN(C(=O)/C=C/CF)CC4)c3c2)cc1NS(=O)(=O)c1ccc(F)cc1F` [Example 16, (E)-2,4-difluoro-N-(5-(4-(4-(4-fluorobut-2-enoyl)piperazin-1-yl)quinazolin-6-yl)-2-methoxypyridin-3-yl)benzenesulfonamide], the IC50 in assay [1] was 35.2 nM; on PI3Kα (Table 1) it was 0.26 nM; at PI3Kδ (Table 1), 28.5 nM.
For the molecule `CC(=O)/C=C/C(=O)N1CCN(c2ncnc3ccc(-c4cnc(Cl)c(NS(=O)(=O)c5ccc(Cl)s5)c4)cc23)CC1` [Example 36, (E)-5-chloro-N-(2-chloro-5-(4-(4-(4-oxopent-2-enoyl)piperazin-1-yl)quinazolin-6-yl)pyridin-3-yl)thiophene-2-sulfonamide], the IC50 was 278 nM in assay [1], 21.5 nM on PI3Kα (Table 1) and 140 nM at PI3Kδ (Table 1).
Take `C=C(COC)C(=O)N1CCN(c2ncnc3ccc(-c4cnc(OC)c(NS(=O)(=O)c5ccc(F)cc5F)c4)cc23)CC1` [Example 65, 2,4-difluoro-N-(2-methoxy-5-(4-(4-(2-(methoxy-methyl)acryloyl)piperazin-1-yl)quinazolin-6-yl)pyridin-3-yl) benzene-sulfonamide]: the concentration for half-maximal inhibition (IC50) in assay [1] stood at 25.1 nM; at PI3Kα (Table 2), 3.9 nM; on PI3Kδ (Table 2), 53 nM.
For `COc1ncc(-c2ccc3ncnc(N4CCN(C(=O)/C=C/C(C)=O)CC4)c3c2)cc1NS(=O)(=O)C1CCCCC1` [Example 26, (E)-N-(2-methoxy-5-(4-(4-(4-oxopent-2-enoyl)piperazin-1-yl)quinazolin-6-yl)pyridin-3-yl)cyclohexanesulfonamide], the IC50 in assay [1] came out at 142 nM; on PI3Kα (Table 1), 44.6 nM; on PI3Kδ (Table 1), 265 nM.
With `CCc1ncc(-c2ccc3ncnc(N4CCN(C(=O)/C=C/C(C)=O)CC4)c3c2)cc1NS(=O)(=O)c1ccc(F)cc1F` [Example 83, (E)-N-(2-ethyl-5-(4-(4-(4-oxopent-2-enoyl)piperazin-1-yl)quinazolin-6-yl)pyridin-3-yl)-2,4-difluorobenzenesulfonamide], the IC50 worked out at 459 nM in assay [1], 6.2 nM at PI3Kα (Table 2) and 17.6 nM at PI3Kδ (Table 2).
On the same counts, the results for `C=C(F)C(=O)N1CC2(CCN(c3ncnc4ccc(-c5cnc(OC)c(NS(=O)(=O)c6ccc(F)cc6F)c5)cc34)C2)C1` [Example 60, 2,4-difluoro-N-(5-(4-(2-(2-fluoroacryloyl)-2,6-diazaspiro[3.4]octan-6-yl)quinazolin-6-yl)-2-methoxy-pyridin-3-yl) benzene-sulfonamide] are 48.2 nM, 3.9 nM and 13.5 nM.
As to `C=CC(=O)N1CC2(CCN(c3ncnc4ccc(-c5cnc(OC)c(NS(=O)(=O)c6c(F)cccc6F)c5)cc34)CC2)C1` [Example 50, N-(5-(4-(2-acryloyl-2,7-diazaspiro[3.5]nonan-7-yl)quinazolin-6-yl)-2-methoxypyridin-3-yl)-2,6-difluorobenzene-sulfonamide], the 50% inhibitory concentration (IC50) in assay [1] amounted to 31.1 nM; on PI3Kα (Table 2), 0.61 nM; on PI3Kδ (Table 2), 11.4 nM.
The corresponding values for `C=C(F)C(=O)N1CCN(c2ncnc3ccc(-c4cnc(OC)c(NS(=O)(=O)c5ccc(F)cc5F)c4)cc23)C[C@@H]1CC#N` [Example 113, (S)-N-(5-(4-(3-(cyanomethyl)-4-(2-fluoroacryloyl)piperazin-1-yl)quinazolin-6-yl)-2-methoxypyridin-3-yl)-2,4-difluorobenzenesulfonamide] are 58 nM, 2.9 nM and 11.5 nM.
